Assay results: PMC4846820, “A single active catalytic site is sufficient to promote transport in P-glycoprotein” (Scientific Reports, 2016)
“And” between values parts separate entries of the source, which are not always exact repeats. Identical values can stand only once. Like-named read-outs stand apart in the source and are kept apart here.

Assays:
Wild-type Pgp [1] = molecular target: T1, Wild-type Pgp (Homo sapiens, UniProt P08183); assay: Nucleotide trapping kinetics (BeFx or Vi), UIC2-A647 labeling; settings: for accumulation in the trapped complex: both in WT and single Walker A mutant Pgp variants
T1 sequence (P08183 whole entry): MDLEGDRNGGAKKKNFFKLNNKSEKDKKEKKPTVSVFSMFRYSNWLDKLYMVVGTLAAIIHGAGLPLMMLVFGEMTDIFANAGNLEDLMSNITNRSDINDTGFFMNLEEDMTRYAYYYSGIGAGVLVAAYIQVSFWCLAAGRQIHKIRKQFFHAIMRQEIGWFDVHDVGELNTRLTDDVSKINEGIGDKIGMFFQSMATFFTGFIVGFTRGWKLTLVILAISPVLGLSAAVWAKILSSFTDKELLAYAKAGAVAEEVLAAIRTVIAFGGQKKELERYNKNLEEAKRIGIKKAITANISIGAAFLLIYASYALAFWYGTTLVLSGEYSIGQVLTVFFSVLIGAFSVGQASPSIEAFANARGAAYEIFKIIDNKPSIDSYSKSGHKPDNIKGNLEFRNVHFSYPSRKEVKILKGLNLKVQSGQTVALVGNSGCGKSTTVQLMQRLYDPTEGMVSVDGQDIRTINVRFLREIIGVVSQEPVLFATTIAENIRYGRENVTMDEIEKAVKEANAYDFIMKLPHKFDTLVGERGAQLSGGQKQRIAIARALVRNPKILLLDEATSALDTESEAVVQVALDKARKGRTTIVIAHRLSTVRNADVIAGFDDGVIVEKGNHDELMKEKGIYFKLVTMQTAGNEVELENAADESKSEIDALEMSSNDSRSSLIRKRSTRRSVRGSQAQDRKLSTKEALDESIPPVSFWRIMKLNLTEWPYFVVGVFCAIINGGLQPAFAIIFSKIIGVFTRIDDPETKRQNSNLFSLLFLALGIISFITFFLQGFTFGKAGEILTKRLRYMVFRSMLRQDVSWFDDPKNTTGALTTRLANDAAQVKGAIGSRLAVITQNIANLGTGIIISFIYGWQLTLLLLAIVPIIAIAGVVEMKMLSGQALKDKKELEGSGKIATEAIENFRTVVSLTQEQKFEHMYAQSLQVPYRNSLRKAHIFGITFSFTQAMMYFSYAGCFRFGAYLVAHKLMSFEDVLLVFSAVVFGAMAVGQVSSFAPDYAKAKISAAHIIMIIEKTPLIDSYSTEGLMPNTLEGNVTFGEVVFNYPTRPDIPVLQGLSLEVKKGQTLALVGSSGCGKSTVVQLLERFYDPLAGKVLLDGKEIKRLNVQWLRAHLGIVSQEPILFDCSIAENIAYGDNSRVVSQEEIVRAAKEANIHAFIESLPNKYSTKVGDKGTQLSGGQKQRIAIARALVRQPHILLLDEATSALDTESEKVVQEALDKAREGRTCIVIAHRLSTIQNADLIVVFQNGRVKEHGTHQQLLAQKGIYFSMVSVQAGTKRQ
Description: The transition state of Pgp was stabilized by the addition of ATP/Mg^2+ and vanadate (Vi) or BeFx at 37 °C. Permeabilized cells were incubated with 100 μM (for WT) or 500 μM (for K433M and K1076M) ATP/Mg^2+ and 0.5 mM Vi[70] or BeFx (200 μM BeSO4 and 1 mM NaF) in the presence or absence of substrates in PBS at 37 °C. 500 μl aliquots were taken at regular intervals and washed twice with 5 ml ice-cold PBS containing Vi or BeFx at the same concentrations that were applied previously during incubation. […] The UIC2-A647 fluorescence intensity of the samples (F) was plotted as a function of time (t). The t1/2 values representing the half-life of the UIC2-reactive Pgp conformation were calculated from an exponential fit of the data points according to the following equation:

[2] = system: MDCK cells expressing single Walker A mutant Pgp; assay: Cytotoxic effect of vinblastine, AlamarBlue assay; format: cell-based, canine; settings: 72 h, single mutants
Description: cells/well. 24 hours later vinblastine was added at different concentrations and the plates were
further incubated for 72 h at 37 °C. The cell viability was determined using the AlamarBlue
assay (Serotec, UK) measuring the 530/590 nm fluorescence intensity of the dye in an
automated microplate reader (BioTec Synergy HT, US). The fluorescence intensities of the
samples were normalized to the fluorescence of the vinblastine untreated control sample, and
plotted as a function of vinblastine concentration. The data points are means of eight parallel
samples (±SD) from a representative experiment out of three.

Wild-type Pgp [3] = molecular target: T1, Wild-type Pgp
Description: Permeabilized cells trapped in the presence of ATP/Mg^2+ (100 μM for wild-type and 500 μM for single Walker A mutants) and 0.5 mM Vi were washed 3 times with ice-cold PBS and incubated in the presence or absence of ATP and/or substrates (verapamil, vinblastine) at 37 °C. 500 μl aliquots containing 2 × 10^5 cells were taken at regular intervals and washed twice with 5 ml PBS. […] At the end of incubations the samples were washed three times with ice-cold PBS and kept on ice until measurement in the flow cytometer.

[4] = system: single Walker A mutant Pgps (K433M and K1076M); assay: UIC2 mAb labeling of permeabilized cells, single mutants taken together; format: cell-based, human
Description: (§1) Permeabilized cells (1 × 10^6 ml^−1) were pre-incubated for 20 min with nucleotides added in a broad concentration range and then further incubated for 30 min with 10 μg/ml A647-conjugated UIC2 monoclonal antibody (all at 37 °C). UIC2 mAb binding to Pgp is a reversible reaction in the presence of ATP/Mg^2+ (Supplementary Fig. S6), thus, UIC2 was applied at a quasi-saturating concentration (5Kd;UIC2; Supplementary Fig. S5) and the duration of the incubation period was sufficient to reach equilibrium binding of UIC2 (Supplementary Fig. S6).
(§2) To prevent ATP hydrolysis, ATP was added to permeabilized cells without Mg^2+ in the presence of 5 mM EDTA. Alternatively, ATP was replaced by the non-hydrolysable ATP analogue AMP-PNP/Mg^2+, or the experiment was conducted on ice. […] Following antibody labeling, samples were washed 3 times with ice-cold PBS and centrifuged for 7 min at 635 g at 4 °C. The UIC2-A647 fluorescence intensity of the cells was measured by flow cytometry and plotted as a function of the nucleotide concentration.

Wild-type Pgp [5] = molecular target: T1, Wild-type Pgp; assay: Recovery from the Vi-trapped post-hydrolysis state (UIC2 labeling); settings: data not shown
K433M Pgp = K433M Pgp (Homo sapiens, UniProt P08183, K433M); assay: UIC2 mAb labeling of permeabilized cells: apparent affinity of nucleotide binding; settings: 37 °C, Mg2+
Sequence of K433M Pgp (P08183 whole entry K433M): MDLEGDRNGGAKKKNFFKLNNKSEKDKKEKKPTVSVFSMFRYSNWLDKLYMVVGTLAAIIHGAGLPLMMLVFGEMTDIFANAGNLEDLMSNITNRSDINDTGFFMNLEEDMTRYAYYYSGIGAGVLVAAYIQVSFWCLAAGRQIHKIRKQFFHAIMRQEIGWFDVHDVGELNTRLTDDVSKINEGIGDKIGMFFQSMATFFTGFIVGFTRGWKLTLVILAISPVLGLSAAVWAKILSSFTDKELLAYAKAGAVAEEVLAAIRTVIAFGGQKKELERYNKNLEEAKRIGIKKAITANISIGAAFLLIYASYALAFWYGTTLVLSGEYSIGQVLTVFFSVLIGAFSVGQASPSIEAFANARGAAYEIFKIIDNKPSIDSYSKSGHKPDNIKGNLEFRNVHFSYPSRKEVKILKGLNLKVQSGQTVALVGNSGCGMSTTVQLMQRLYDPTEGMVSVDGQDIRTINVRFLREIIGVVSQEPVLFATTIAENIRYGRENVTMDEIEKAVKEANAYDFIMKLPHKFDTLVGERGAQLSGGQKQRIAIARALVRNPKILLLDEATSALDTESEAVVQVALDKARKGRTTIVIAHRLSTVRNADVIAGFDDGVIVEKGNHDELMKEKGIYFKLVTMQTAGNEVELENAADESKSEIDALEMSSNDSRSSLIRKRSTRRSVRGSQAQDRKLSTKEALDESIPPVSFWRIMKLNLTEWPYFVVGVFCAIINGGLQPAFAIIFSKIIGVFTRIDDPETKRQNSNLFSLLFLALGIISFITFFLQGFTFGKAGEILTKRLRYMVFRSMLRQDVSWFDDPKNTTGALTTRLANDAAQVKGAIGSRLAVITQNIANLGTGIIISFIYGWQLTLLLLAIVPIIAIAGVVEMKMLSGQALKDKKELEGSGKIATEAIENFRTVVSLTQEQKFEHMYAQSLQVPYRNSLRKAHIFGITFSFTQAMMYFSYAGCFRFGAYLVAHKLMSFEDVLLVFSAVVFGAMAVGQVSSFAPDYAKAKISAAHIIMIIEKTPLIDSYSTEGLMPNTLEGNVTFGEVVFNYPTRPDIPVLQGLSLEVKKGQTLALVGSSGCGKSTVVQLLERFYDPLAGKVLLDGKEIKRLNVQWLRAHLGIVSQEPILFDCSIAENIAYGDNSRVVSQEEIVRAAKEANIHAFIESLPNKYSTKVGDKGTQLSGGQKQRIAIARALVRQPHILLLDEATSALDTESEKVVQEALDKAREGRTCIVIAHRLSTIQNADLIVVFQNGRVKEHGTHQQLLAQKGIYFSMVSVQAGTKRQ
Description: as §1, §2

K1076M Pgp = K1076M Pgp (Homo sapiens, UniProt P08183, K1076M); assay: as above; settings: 37 °C, Mg2+
Sequence of K1076M Pgp (P08183 whole entry K1076M): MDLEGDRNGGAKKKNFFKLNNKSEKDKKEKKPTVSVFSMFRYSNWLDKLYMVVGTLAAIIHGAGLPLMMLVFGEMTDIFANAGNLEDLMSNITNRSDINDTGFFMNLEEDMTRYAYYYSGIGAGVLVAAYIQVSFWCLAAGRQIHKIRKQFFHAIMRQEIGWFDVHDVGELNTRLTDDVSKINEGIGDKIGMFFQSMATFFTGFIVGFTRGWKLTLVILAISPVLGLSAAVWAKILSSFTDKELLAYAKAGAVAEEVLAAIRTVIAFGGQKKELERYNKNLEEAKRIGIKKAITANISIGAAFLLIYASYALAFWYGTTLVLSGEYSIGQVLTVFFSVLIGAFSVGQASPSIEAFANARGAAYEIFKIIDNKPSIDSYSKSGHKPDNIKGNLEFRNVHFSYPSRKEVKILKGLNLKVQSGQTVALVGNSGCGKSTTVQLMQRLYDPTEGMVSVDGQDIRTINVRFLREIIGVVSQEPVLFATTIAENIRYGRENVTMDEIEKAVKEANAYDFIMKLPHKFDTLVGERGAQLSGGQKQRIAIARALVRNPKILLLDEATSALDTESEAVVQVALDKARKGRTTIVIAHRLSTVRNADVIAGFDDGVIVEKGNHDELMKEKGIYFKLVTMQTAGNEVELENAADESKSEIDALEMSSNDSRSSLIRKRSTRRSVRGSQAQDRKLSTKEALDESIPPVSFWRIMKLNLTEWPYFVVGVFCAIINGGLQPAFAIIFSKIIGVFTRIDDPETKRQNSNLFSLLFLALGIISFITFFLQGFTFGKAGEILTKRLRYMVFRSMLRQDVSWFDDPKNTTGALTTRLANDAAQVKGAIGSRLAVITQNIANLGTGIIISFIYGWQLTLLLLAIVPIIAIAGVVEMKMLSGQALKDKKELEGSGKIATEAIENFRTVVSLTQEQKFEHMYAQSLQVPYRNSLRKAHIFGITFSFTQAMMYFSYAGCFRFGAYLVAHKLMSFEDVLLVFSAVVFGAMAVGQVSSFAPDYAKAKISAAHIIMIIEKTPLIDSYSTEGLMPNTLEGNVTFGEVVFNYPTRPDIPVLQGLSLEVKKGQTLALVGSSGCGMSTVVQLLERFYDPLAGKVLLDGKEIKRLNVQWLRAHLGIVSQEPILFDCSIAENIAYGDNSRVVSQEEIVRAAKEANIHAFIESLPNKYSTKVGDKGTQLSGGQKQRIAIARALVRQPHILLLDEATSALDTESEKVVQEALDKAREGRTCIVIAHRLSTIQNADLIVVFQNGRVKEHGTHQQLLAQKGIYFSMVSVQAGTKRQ
Description: as §1, §2

Wild-type Pgp [6] = molecular target: T1, Wild-type Pgp; assay: UIC2 mAb labeling of permeabilized NIH 3T3 cells: apparent affinity of nucleotide binding
Description: as §1, §2

Wild-type Pgp [7] = molecular target: T1, Wild-type Pgp; assay: VBL-BPY binding in permeabilized NIH 3T3 cells (confocal microscopy); settings: 5 mM AMP-PNP
Description: Cells permeabilized by Staphylococcus alpha toxin (a) or Streptolysin O (b) were treated with different concentrations of CsA, ATP/Mg^2++ vanadate (Vi) or AMP-PNP/Mg^2+ followed by co-staining with VBL-BPY and 15D3-A647. The ratio of the VBL-BPY and 15D3-A647 fluorescence intensity was determined in pixels representing the plasma membrane, selected on the basis of 15D3-A647 fluorescence intensity exceeding the threshold of 300. Nucleotide-treated samples were compared to permeabilized ATP-depleted cells (0 mM nucleotide); the values are means ± SD of three independent experiments (***P < 0.001).

[8] = system: single Walker A mutant Pgp (K433M, K1076M); assay: Vinblastine-bodipy staining and 15D3-A647 co-localization in MDCK cells; format: cell-based, human; settings: 2 mM vanadate
Description: Cells were plated in 8-well Ibidi μ-Slide (Ibidi GmbH, Martinsried, Germany) two days before the experiments to obtain nearly confluent cultures. The samples were pre-incubated with the following agents: Na-azide (10 mM) and 2-deoxy D-glucose (8 mM), Vi (2 mM) or NEM (50 μM) for 30 min and then further incubated with 100 nM vinblastine-bodipy (VBL-BPY) and 30 μg/ml A647-conjugated 15D3 anti-Pgp antibody for another 30 min at 37 °C.
Cellular localization of Pgp and VBL-BPY staining was studied by a three-laser confocal laser scanning microscope (Olympus FluoView 1000 confocal microscope based on an inverted IX-81 stand with an UPlansAPo 60 × NA 1.35 oil immersion objective, Hamburg, Germany). […] Fluorescence intensities were detected in the spectral ranges of 500–530 nm, 555–655 nm and 655–755 nm, respectively. To assess the co-localization of VBL-BPY (green) and Alexa 647-conjugated 15D3 (red) fluorescence signals, single optical slices of apical membrane surfaces were recorded for double-labeled cells. The pattern and extent of co-localization in the sections were determined by using the cross-correlation scattergrams of the green and red pixels of the images. Co-localization indices were determined from 30–50 cells (in three independent experiments). […]

[9] = molecular target: double Walker A mutant Pgp (Homo sapiens, UniProt P08183, K1076M/K433M); settings: apical membrane, MDCK cells, 100 nM VBL-BPY
Sequence of double Walker A mutant Pgp (P08183 whole entry K433M/K1076M): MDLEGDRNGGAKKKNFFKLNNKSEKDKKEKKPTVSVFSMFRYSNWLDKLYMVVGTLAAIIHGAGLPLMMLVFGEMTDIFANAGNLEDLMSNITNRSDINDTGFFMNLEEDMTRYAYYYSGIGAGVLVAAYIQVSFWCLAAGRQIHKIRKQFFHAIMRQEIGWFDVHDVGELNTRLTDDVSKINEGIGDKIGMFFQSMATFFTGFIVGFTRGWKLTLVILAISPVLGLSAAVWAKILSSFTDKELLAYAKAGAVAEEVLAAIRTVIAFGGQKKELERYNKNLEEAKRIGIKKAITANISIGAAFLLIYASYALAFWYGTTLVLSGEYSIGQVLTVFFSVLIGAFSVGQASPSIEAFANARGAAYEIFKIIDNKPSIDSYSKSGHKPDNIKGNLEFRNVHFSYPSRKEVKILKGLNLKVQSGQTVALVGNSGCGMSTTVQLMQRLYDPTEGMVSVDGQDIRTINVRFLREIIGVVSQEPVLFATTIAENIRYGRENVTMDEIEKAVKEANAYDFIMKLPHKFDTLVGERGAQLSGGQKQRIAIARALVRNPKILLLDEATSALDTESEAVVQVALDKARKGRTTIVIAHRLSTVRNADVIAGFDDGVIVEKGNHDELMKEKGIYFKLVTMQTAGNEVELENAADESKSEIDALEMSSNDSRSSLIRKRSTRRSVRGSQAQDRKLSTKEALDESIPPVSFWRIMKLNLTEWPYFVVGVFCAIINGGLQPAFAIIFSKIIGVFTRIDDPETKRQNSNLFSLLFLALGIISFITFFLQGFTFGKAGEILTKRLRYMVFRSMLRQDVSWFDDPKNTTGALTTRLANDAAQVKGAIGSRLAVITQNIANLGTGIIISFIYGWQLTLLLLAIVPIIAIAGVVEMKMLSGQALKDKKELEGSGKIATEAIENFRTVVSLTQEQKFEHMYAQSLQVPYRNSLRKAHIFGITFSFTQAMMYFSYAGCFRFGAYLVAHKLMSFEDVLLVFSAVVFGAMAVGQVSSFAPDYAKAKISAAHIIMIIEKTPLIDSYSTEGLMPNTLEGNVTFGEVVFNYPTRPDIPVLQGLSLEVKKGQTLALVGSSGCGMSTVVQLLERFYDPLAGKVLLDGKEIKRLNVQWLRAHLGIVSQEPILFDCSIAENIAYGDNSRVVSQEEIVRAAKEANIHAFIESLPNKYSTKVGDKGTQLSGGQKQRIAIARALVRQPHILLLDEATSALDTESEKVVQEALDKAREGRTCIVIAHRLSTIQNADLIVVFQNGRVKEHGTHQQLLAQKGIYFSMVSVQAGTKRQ
Description: The pattern and extent of co-localization in the sections were determined by using the cross-correlation scattergrams of the green and red pixels of the images. Co-localization indices were determined from 30–50 cells (in three independent experiments). The Pearson’s co-localization index (CI) provides a reliable estimate on the extent of fluorescence co-localization: CI values close to zero indicate no or a very low degree, while CI ≥ 0.5 reflects a high degree of co-localization, whereas the CI = 1 value would correspond to a full overlap between the two colours in each pixel of the image.

For COC(=O)c1ccccc1-c1c2ccc(=N)cc-2oc2cc(N)ccc12 [rhodamine 123], the “accumulation in the trapped complex” value (Wild-type Pgp [1]) was “accelerated”.

CC[C@]1(O)C[C@@H]2CN(CCc3c([nH]c4ccccc34)[C@@](C(=O)OC)(c3cc4c(cc3OC)N(C)[C@H]3[C@@](O)(C(=O)OC)[C@H](OC(C)=O)[C@]5(CC)C=CCN6CC[C@]43[C@@H]65)C2)C1 [vinblastine] was tested, and the “resistance against the cytotoxic effect of vinblastine” value [2] was “conferred resistance”, the “effect on release of the tightly bound nucleotide from the Vi-trapped complex” value (Wild-type Pgp [3]) was “not influenced” and the “accumulation in the trapped complex” value (Wild-type Pgp [1]) was “accelerated”. For the same compound, the “apparent affinity for ATP in the presence of substrate” value (Wild-type Pgp [1]; up to 200 μM vinblastine, BeFx, 20 min, 37 °C) was “did not change”.

In the case of Nc1ncnc2c1ncn2[C@@H]1O[C@H](COP(=O)(O)OP(=O)(O)OP(=O)(O)O)[C@@H](O)[C@H]1O [ATP], the “fraction of UIC2 label persisting in saturating ATP” value ([4]; 10 μg/ml UIC2) is reported as ~ 50%, the “KA (apparent affinity for competing UIC2 labeling)” value ([4]; at [UIC2] about 5Kd;UIC2) is reported as about 2.5 mM and the Kd ([4]; estimated with Eq. 7 of the kinetic model, read-out: Kd;ATP, dissociation constant of ATP from inward-facing Pgp) is reported as about 5000 µM. The Km ([4]; from Eq. 3 of the kinetic model, read-out: predicted KM for ATP-hydrolysis and substrate transport in the absence of UIC2) was about 700 µM, the “decrease in apparent affinity for ATP of the single mutants” value ([4]; relative to WT) was ~ 10 fold and the “effect on release of the tightly bound nucleotide from the Vi-trapped complex” value (Wild-type Pgp [5]) was “not influenced”. The Hill slope (K433M Pgp) was 0.90 ± 0.32, the “KA (apparent nucleotide affinity) for competing UIC2 labeling” value (shortened to “KA (apparent nucleotide affinity)”) (K433M Pgp) was 2.08 ± 1.04 mM and the Hill slope (K1076M Pgp) was 0.89 ± 0.33. The “KA (apparent nucleotide affinity)” value (K1076M Pgp) was 2.03 ± 0.91 mM, the Hill slope (Wild-type Pgp [6]; 4 °C, Mg2+) was 0.66 ± 0.17 and the “KA (apparent nucleotide affinity)” value (Wild-type Pgp [6]; 4 °C, Mg2+) was 2.70 ± 1.83 mM. The Hill slope (Wild-type Pgp [6]; 37 °C, Mg2+) was 0.77 ± 0.20, the “KA (apparent nucleotide affinity)” value (Wild-type Pgp [6]; 37 °C, Mg2+, 10 μg/ml UIC2) was 0.25 ± 0.16 mM and 0.25 mM and the Hill slope (Wild-type Pgp [6]; 37 °C, no Mg2+) was 1.60 ± 0.22. The “KA (apparent nucleotide affinity)” value (Wild-type Pgp [6]; 37 °C, no Mg2+) was 1.92 ± 0.33 mM, the Kd (Wild-type Pgp [6]; read-out: Kd;ATP, dissociation constant of ATP from inward-facing Pgp, estimated with Eq. 7 of the kinetic model from KA and T2/T1;min) was about 700 µM and the Km (Wild-type Pgp [6]; read-out: predicted KM for ATP-hydrolysis and substrate transport in the absence of UIC2, from Eq. 3 of the kinetic model) was about 60 µM.

With Nc1ncnc2c1ncn2[C@@H]1O[C@H](COP(=O)(O)OP(=O)(O)NP(=O)(O)O)[C@@H](O)[C@H]1O [AMP-PNP] the “co-localization of VBL-BPY and Pgp” value (Wild-type Pgp [7]) was “significant decrease”, the Hill slope (K433M Pgp) was 2.06 ± 0.29 and the “KA (apparent nucleotide affinity)” value (K433M Pgp) was 3.40 ± 1.42 mM. For the same compound, the Hill slope (K1076M Pgp) was 1.68 ± 0.23, the “KA (apparent nucleotide affinity)” value (K1076M Pgp) was 3.01 ± 0.92 mM and the Hill slope (Wild-type Pgp [6]; 37 °C, Mg2+) was 1.75 ± 0.34. The “KA (apparent nucleotide affinity)” value (Wild-type Pgp [6]; 37 °C, Mg2+, 10 μg/ml UIC2) was 0.27 ± 0.14 mM.

[O]=[V]([O-])([O-])[O-] [Vi, orthovanadate] was tested, and the “increase in the apparent affinity of the single mutants to ATP on addition of vanadate” value ([4]; ATP/Mg2+, 37 °C) was 5–10 fold, the “effect on VBL-BPY binding to single Walker A mutants” value [8] was “fully suppressed” and the “t1/2 of Vi trapping” value (Wild-type Pgp [1]; n = 6, Pgp variant not given) was 3.92 ± 0.87 min. For the same compound, the “effect of Vi on apparent affinity” value (Wild-type Pgp [6]; ATP hydrolysis prevented (Fig. 1b-d)) was “not influenced at all” and the “effect of vanadate on apparent affinity” value (Wild-type Pgp [6]; hydrolysis conditions: 37 °C, ATP/Mg2+) was “increased the apparent affinity”.

CCC1(O)CC2CN(CCc3c([nH]c4ccccc34)C(C(=O)OC)(c3cc4c(cc3OC)N(C)C3C(O)(C(=O)OC)C(OC(=O)CCC5=[N+]6C(=Cc7c(C)cc(C)n7[B-]6(F)F)C=C5)C5(CC)C=CCN6CCC43C65)C2)C1 (stereo not drawn) [VBL-BPY, BODIPY FL vinblastine] was tested, and the “Pearson's cross-correlation coefficient between VBL-BPY and 15D3 anti-Pgp antibody signals” value [9] was ~ 0.8.
